Results as given in ChEMBL document CHEMBL3991601, “The target landscape of clinical kinase drugs” (Science, 2017).
Active and inactive are the calls of the source. Rule as the data show it, for most assays here: actives have a measured Kd and inactives only a lower limit.

Columns and labels:
[1] = target: Tyrosine-protein kinase ABL2 (Homo sapiens, UniProt P42684)
[2] = target: T1, Beta-adrenergic receptor kinase 1 (Homo sapiens, UniProt P25098)
T1 sequence (P25098 whole entry): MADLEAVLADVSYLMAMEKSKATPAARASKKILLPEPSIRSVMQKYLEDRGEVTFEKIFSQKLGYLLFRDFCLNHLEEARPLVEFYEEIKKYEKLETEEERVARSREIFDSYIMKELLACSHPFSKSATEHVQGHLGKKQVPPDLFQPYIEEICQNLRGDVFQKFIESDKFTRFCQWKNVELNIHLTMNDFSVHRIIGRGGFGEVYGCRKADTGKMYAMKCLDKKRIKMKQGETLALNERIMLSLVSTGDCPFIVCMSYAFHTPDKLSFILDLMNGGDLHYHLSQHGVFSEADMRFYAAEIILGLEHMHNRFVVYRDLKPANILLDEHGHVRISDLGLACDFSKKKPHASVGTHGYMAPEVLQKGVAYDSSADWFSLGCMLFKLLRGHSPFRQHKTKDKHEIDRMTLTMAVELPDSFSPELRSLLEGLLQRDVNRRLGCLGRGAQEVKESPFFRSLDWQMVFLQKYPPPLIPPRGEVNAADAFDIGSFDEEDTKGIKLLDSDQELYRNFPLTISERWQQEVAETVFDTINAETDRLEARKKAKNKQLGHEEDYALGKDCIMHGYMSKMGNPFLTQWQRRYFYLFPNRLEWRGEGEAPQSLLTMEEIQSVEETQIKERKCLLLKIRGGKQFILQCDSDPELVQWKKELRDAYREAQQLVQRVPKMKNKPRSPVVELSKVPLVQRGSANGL

Heme oxygenase 2 = target: T2, Heme oxygenase 2 (Homo sapiens, UniProt P30519)
T2 sequence (P30519 whole entry): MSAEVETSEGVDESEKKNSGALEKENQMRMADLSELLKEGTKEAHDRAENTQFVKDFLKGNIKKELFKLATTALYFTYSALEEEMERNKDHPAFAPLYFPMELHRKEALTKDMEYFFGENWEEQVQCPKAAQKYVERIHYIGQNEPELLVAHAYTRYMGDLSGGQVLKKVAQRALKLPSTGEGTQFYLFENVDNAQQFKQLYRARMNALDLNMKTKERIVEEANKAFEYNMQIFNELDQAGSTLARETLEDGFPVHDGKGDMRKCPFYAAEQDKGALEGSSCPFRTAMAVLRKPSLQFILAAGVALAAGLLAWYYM

[3] = target: T3, Inhibitor of nuclear factor kappa-B kinase subunit epsilon (Homo sapiens, UniProt Q14164)
T3 sequence (Q14164 whole entry): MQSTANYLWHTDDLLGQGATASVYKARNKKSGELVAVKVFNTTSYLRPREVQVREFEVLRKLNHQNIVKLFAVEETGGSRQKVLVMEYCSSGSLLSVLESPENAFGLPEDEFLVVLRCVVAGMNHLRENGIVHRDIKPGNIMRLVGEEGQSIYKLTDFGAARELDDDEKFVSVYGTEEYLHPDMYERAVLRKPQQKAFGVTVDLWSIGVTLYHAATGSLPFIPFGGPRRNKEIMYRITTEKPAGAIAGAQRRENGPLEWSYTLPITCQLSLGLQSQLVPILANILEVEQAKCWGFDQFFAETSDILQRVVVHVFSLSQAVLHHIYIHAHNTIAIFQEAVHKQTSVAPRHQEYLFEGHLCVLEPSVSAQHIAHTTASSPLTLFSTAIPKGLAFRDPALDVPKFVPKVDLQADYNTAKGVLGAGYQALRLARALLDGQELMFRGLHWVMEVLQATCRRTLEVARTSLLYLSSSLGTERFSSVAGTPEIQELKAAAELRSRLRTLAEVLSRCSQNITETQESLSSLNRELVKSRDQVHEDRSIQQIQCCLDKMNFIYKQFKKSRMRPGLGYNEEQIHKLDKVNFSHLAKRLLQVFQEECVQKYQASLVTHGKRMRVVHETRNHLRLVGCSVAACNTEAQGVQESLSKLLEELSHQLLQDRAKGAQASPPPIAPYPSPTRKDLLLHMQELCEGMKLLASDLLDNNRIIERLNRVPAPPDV

[4] = target: T4, Serine/threonine-protein kinase Nek9 (Homo sapiens, UniProt Q8TD19)
T4 sequence (Q8TD19 whole entry): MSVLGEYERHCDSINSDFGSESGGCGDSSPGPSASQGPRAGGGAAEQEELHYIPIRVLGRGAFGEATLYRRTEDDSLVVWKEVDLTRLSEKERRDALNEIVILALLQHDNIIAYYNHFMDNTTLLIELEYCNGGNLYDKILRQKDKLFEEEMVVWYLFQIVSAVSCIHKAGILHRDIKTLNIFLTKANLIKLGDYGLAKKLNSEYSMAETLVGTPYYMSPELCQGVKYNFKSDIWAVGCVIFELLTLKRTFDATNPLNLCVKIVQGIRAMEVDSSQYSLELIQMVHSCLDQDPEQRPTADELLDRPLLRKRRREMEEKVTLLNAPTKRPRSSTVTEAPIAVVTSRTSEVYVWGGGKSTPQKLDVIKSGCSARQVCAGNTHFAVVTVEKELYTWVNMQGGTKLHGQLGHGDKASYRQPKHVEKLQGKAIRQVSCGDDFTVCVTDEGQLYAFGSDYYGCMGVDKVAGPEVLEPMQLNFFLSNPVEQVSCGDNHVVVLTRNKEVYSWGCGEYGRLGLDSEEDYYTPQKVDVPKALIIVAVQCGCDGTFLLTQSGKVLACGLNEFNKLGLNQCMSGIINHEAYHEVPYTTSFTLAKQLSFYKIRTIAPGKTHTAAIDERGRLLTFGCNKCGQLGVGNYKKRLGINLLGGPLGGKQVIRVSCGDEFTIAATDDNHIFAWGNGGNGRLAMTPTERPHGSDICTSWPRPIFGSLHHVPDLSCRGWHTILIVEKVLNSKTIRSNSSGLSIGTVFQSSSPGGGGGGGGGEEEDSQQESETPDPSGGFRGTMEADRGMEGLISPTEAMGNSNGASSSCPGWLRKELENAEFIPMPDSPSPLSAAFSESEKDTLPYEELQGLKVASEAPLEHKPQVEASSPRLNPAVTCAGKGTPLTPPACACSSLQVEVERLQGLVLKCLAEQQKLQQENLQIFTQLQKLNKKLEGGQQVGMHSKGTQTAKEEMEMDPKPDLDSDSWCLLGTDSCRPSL

Obg-like ATPase 1 = Obg-like ATPase 1 (Homo sapiens, UniProt Q9NTK5)
[5] = target: Platelet-derived growth factor receptor beta (Homo sapiens, UniProt P09619)
[6] = target: 5'-AMP-activated protein kinase catalytic subunit alpha-1 (Homo sapiens, UniProt Q13131)
Also: in the data inactive means no Kd found up to 30 µM.

Sequence of Platelet-derived growth factor receptor beta (P09619 whole entry): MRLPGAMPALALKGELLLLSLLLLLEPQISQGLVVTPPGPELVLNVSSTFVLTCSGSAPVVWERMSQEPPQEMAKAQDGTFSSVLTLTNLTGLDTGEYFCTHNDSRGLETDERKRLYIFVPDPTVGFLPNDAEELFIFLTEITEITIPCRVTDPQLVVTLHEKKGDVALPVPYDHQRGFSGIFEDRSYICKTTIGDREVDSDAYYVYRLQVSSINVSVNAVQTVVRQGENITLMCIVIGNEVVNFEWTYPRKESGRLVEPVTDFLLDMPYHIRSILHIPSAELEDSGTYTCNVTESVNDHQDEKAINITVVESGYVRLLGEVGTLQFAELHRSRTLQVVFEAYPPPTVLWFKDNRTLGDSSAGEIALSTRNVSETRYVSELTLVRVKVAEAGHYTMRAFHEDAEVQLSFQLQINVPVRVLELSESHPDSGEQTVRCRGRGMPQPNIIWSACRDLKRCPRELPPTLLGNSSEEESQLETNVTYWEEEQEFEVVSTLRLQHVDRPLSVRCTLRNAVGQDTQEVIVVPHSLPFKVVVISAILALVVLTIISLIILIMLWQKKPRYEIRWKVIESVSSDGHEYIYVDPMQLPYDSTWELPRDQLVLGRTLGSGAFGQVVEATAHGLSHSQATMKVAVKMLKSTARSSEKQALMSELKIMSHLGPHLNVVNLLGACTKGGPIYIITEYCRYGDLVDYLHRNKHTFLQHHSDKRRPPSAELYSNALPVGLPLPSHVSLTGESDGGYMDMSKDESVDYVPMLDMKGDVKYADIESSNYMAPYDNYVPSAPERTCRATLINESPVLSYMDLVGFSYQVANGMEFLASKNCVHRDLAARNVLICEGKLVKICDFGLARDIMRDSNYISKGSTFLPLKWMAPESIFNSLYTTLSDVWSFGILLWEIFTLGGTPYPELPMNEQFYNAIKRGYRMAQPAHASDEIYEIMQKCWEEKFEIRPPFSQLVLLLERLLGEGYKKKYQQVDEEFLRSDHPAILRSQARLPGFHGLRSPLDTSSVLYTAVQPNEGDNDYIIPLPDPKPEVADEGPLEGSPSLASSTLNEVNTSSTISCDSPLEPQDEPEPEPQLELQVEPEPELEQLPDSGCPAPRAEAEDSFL
Sequence of 5'-AMP-activated protein kinase catalytic subunit alpha-1 (Q13131 whole entry): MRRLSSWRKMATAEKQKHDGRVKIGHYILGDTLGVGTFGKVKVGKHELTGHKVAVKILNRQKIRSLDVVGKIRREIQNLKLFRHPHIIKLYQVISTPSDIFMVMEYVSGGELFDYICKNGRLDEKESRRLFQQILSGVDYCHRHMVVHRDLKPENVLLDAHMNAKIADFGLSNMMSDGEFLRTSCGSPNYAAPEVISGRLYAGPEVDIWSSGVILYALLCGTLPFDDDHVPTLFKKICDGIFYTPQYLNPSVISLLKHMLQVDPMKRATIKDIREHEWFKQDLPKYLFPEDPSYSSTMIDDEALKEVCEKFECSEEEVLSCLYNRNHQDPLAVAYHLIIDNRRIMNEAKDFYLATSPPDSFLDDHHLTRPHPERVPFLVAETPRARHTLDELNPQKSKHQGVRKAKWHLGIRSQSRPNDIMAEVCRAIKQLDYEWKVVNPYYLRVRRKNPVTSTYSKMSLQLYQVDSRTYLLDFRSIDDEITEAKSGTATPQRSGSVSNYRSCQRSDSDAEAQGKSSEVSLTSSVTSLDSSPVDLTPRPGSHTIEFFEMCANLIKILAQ
Sequence of Obg-like ATPase 1 (Q9NTK5 whole entry, looked up): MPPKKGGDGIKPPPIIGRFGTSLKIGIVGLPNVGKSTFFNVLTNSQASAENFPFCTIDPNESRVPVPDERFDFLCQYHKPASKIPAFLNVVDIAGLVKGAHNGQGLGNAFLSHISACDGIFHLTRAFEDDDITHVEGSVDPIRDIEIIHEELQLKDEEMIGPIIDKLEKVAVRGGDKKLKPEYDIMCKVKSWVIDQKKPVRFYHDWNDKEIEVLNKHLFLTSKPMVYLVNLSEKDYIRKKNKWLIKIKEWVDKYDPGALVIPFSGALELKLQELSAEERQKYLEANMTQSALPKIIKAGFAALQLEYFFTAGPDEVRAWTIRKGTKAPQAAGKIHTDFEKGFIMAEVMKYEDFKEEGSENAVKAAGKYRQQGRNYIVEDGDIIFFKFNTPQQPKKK
Sequence of Tyrosine-protein kinase ABL2 (P42684 whole entry): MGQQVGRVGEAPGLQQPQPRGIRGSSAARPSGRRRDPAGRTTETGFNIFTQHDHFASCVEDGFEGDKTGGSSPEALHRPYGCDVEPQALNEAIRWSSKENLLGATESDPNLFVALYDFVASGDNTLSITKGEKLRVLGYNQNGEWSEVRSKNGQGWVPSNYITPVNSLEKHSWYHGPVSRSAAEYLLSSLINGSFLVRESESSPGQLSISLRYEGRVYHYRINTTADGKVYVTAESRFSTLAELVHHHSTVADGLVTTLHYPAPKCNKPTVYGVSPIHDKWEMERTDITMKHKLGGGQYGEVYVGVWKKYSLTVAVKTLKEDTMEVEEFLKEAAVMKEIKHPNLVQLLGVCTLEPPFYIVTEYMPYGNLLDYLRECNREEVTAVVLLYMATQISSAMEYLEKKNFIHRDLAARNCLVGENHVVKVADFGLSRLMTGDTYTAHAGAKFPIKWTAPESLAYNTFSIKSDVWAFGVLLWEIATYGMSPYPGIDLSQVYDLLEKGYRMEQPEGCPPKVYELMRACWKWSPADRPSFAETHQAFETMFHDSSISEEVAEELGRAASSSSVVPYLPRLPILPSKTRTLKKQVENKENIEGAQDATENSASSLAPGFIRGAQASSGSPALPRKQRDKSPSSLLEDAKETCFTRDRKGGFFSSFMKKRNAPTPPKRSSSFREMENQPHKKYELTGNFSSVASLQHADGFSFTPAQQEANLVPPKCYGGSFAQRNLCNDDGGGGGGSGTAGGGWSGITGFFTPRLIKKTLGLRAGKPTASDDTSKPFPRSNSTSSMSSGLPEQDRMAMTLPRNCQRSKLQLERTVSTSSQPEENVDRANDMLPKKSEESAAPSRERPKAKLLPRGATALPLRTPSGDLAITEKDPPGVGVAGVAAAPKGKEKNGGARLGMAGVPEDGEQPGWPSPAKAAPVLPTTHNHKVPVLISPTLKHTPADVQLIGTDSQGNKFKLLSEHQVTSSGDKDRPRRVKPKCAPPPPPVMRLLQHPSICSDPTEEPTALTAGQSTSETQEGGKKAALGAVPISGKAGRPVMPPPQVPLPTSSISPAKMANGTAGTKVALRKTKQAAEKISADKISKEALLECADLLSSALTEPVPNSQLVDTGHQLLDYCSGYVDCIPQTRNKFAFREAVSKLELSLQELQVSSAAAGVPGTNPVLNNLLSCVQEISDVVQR

Row | Structure (SMILES) | Kd [1] | Kd [2] | Kd (Heme oxygenase 2) | Kd [3] | Kd [4] | Kd (Obg-like ATPase 1) | Kd [5] | Kd [6]
1 | C=CC(=O)Nc1cc2c(Nc3ccc(F)c(Cl)c3)ncnc2cc1C#CC(C)(C)N1CCN(C)CC1 [AV-412 FREE BASE] | > 30 µM (inactive) | > 30 µM (inactive) | > 30 µM (inactive) | > 30 µM (inactive) | > 30 µM (inactive) | > 30 µM (inactive) | > 30 µM (inactive) | > 30 µM (inactive)
2 | COc1cc([C@@H]2c3cc4c(cc3[C@H](O)[C@H]3COC(=O)[C@@H]23)OCO4)cc(OC)c1OC [AXL-1717] | > 30 µM (inactive) | > 30 µM (inactive) | > 30 µM (inactive) | > 30 µM (inactive) | > 30 µM (inactive) | > 30 µM (inactive) | > 30 µM (inactive) | > 30 µM (inactive)
3 | NC(=O)Nc1cc(-c2cccc(F)c2)sc1C(=O)N[C@H]1CCCNC1 [AZD-7762] | 0.899 µM (active) | > 30 µM (inactive) | > 30 µM (inactive) | > 30 µM (inactive) | > 30 µM (inactive) | > 30 µM (inactive) | 0.552 µM (active) | 0.762 µM (active)
4 | Cc1cc(C(=O)NOCCO)c(Nc2ccc(I)cc2F)n(C)c1=O [AZD-8330] | > 30 µM (inactive) | > 30 µM (inactive) | > 30 µM (inactive) | > 30 µM (inactive) | > 30 µM (inactive) | > 30 µM (inactive) | > 30 µM (inactive) | > 30 µM (inactive)
5 | Cn1cnc2c(F)c(Nc3ccc(Br)cc3F)c(C(=O)NOCCO)cc21 [BINIMETINIB] | > 30 µM (inactive) | > 30 µM (inactive) | > 30 µM (inactive) | > 30 µM (inactive) | > 30 µM (inactive) | > 30 µM (inactive) | > 30 µM (inactive) | > 30 µM (inactive)
6 | CCn1c(C(=O)N(C2CC2)C2CC2)cc2c3c(ncn3C)c(Nc3cc(C)n(C)n3)nc21 [BMS-911543] | > 30 µM (inactive) | > 30 µM (inactive) | > 30 µM (inactive) | > 30 µM (inactive) | > 30 µM (inactive) | > 30 µM (inactive) | > 30 µM (inactive) | > 30 µM (inactive)
7 | COc1c(OCCCN2CCOCC2)ccc2c1N=C(NC(=O)c1cnc(N)nc1)N1CCN=C21 [COPANLISIB] | > 30 µM (inactive) | > 30 µM (inactive) | > 30 µM (inactive) | > 30 µM (inactive) | > 30 µM (inactive) | > 30 µM (inactive) | > 30 µM (inactive) | > 30 µM (inactive)
8 | COCC(=O)NC/C=C/c1ccc2ncnc(Nc3ccc(Oc4ccc(C)nc4)c(C)c3)c2c1 [CP-724714] | > 30 µM (inactive) | > 30 µM (inactive) | > 30 µM (inactive) | > 30 µM (inactive) | > 30 µM (inactive) | > 30 µM (inactive) | > 30 µM (inactive) | > 30 µM (inactive)
9 | C#Cc1cccc(Nc2ncnc3cc(OC)c(OCCCCCCC(=O)NO)cc23)c1 [CUDC-101] | > 30 µM (inactive) | > 30 µM (inactive) | > 30 µM (inactive) | > 30 µM (inactive) | > 30 µM (inactive) | > 30 µM (inactive) | > 30 µM (inactive) | > 30 µM (inactive)
10 | O=C(Nc1nc2cccc(-c3ccc(CN4CCS(=O)(=O)CC4)cc3)n2n1)C1CC1 [FILGOTINIB] | > 30 µM (inactive) | > 30 µM (inactive) | > 30 µM (inactive) | > 30 µM (inactive) | > 30 µM (inactive) | > 30 µM (inactive) | > 30 µM (inactive) | > 30 µM (inactive)
11 | Cc1cccc(-c2nn3c(c2-c2ccnc4ccc(C(N)=O)cc24)CCC3)n1 [GALUNISERTIB] | > 30 µM (inactive) | > 30 µM (inactive) | > 30 µM (inactive) | > 30 µM (inactive) | > 30 µM (inactive) | > 30 µM (inactive) | > 30 µM (inactive) | > 30 µM (inactive)
12 | COc1ccc(S(=O)(=O)N(C(C)=O)c2ccccc2/C=C/c2cc[n+]([O-])cc2)cc1 [HMN-214] | > 30 µM (inactive) | > 30 µM (inactive) | > 30 µM (inactive) | > 30 µM (inactive) | > 30 µM (inactive) | > 30 µM (inactive) | > 30 µM (inactive) | > 30 µM (inactive)
13 | CNC(=O)c1cccc2cc(Oc3ccnc4cc(OCC5(N)CC5)c(OC)cc34)ccc12 [LUCITANIB] | > 30 µM (inactive) | > 30 µM (inactive) | > 30 µM (inactive) | > 30 µM (inactive) | > 30 µM (inactive) | > 30 µM (inactive) | 0.278 µM | > 30 µM (inactive)
14 | CN(C[C@@H]1COCCO1)S(=O)(=O)Nc1ccc2ccc3ncc(-c4cnn(C)c4)cc3c(=O)c2c1 [MK-2461] | > 30 µM (inactive) | > 30 µM (inactive) | > 30 µM (inactive) | > 30 µM (inactive) | > 30 µM (inactive) | > 30 µM (inactive) | 0.543 µM | > 30 µM (inactive)
15 | Cn1cc(-c2cnc3ccc4ccc(CS(=O)(=O)NCc5ccccn5)cc4c(=O)c3c2)cn1 [MK-8033] | > 30 µM (inactive) | > 30 µM (inactive) | > 30 µM (inactive) | > 30 µM (inactive) | > 30 µM (inactive) | > 30 µM (inactive) | > 30 µM (inactive) | > 30 µM (inactive)
16 | COc1ncc(-c2ccc3nccc(-c4ccnnc4)c3c2)cc1NS(=O)(=O)c1ccc(F)cc1F [OMIPALISIB] | > 30 µM (inactive) | > 30 µM (inactive) | > 30 µM (inactive) | > 30 µM (inactive) | > 30 µM (inactive) | > 30 µM (inactive) | > 30 µM (inactive) | > 30 µM (inactive)
